Marks after values point to notes of the source that are not given here.
Key:
MCF-7/VP (MRP-1) = experiment: Multidrug resistant cell assay, cytotoxicity; conditions: Homo sapiens, MCF7-VP, 72 h, read-out: Various MDR Cell Line Cytotoxicity IC50
[1] = Pharmacokinetic study in a primate, plasma; format: in vivo, cynomolgus monkey; conditions: for Compound 1 Plasma Concentration: cynomolgus monkey, oral 20 mg/kg
Protocol: A single non-naïve male cynomolgus monkey was assigned to this study. […] Compound 1 was administered once orally via a gavage tube. The gavage tube was rinsed with water and removed. Blood was removed through the femoral artery/vein into a tube containing K3EDTA. The samples were centrifuged and the resulting plasma was separated and stored at approximately −70° C. until shipment to the analysis site. At the analysis site, the samples were stored at −20° C. until the day of analysis.
Plasma samples were analyzed for Compound 1 concentration using a LC-MS/MS method. The range of quantitation was 5-5000 ng/mL and utilized a 0.1 mL plasma sample volume. Concentration-time curves were constructed using WinNonlin (version 5.1.1).

P388 = experiment: Multidrug resistant cell assay, cytotoxicity; format: cell-based, murine; conditions: Mus musculus, P388, 72 h, read-out: Various MDR Cell Line Cytotoxicity IC50
NCI/ADR-Res (MDR-1) = experiment: Multidrug resistant cell assay, cytotoxicity; conditions: 72 h, read-out: Various MDR Cell Line Cytotoxicity IC50
A549 cells = experiment: Microtubule formation in A549 cells (FIG. 1); format: cell-based; conditions: 100 nM, 1 μM, 10 μM
Protocol: FIG. 1 depicts the extent of microtubule formation in A549 cells treated with (2-aminomethylquinazolin-4-yl)-(4-methoxyphenyl)methylamine (“Compound 1”). The cells in panel “a” were treated with 100 nM concentration of Compound 1. The cells in panel “b” were treated with 1 μM concentration of Compound 1. The cells in panel “c” were treated with 10 μM concentration of Compound 1.
FIG. 1 depicts the extent of microtubule formation in A549 cells treated with Compound 1. The cells in panel “a” were treated with 100 nM concentration of Compound 1. The cells in panel “b” were treated with 1 μM concentration of Compound 1. The cells in panel “c” were treated with 10 μM concentration of Compound 1.

P388/ADR (MDR-1) = experiment: Multidrug resistant cell assay, cytotoxicity; format: cell-based; conditions: 72 hours, read-out: Various MDR Cell Line Cytotoxicity IC50
Protocol: P388/ADR cell lines were obtained from American Type Culture Collection (Manassas, Va.) and maintained in RPMI-1640 media supplemented with 10% FCS, 10 units/ml penicillin and streptomycin, 2 mM Glutamax and 1 mM sodium pyruvate (Invitrogen Corporation, Carlsbad, Calif.). […] Cells were allowed to adhere to the plate overnight and then incubated with the compound at final concentrations ranging from 0.13 nM to 10 uM for 72 hours. Cell viability was then assessed using the ATP-lite reagent (Perkin Elmer, Foster City, Calif.). Plates were read on a Wallac Topcount luminescence reader (Perkin Elmer, Foster City, Calif.) and the results graphed in Prism software (Graphpad Software, Inc., San Diego, Calif.). Non-linear regression with variable slope analysis was performed to obtain IC50 concentration values.

OVCAR-3 = experiment: 72 hour cytotoxicity, ATP-Lite cell viability; format: cell-based; conditions: Homo sapiens, OVCAR-3, Ovarian, read-out: 72 Hour Cytotoxicity (IC50, nM ± SD)
Protocol: (§1) A P388 murine leukemia cell line was obtained from NCI, Frederick, Md. P388 cells were cultured in RPMI-1640 supplemented with 10% fetal bovine serum, 2 mM Glutamax, 1 mM sodium pyruvate, 0.1 mM non-essential amino acids and 10 mM HEPES. Cells were grown at 37° C. in a humidified 5% CO2 atmosphere. Exponentially growing P388 cells were plated at 5,000 cells/well in a 96-well flat-bottomed microtiter plate (Corning, Costar #3595, Lowell, Mass.). Twenty-four hours later, test compound was added to cells at final concentrations of 100 nM, 33.3 nM, 11.1 nM, 3.7 nM, 1.23 nM, 0.4 nM and 0.13 nM. Cellular viability was determined 72 hours later by measuring intracellular ATP with ATP-Lite assay system. The effect of compounds on cell viability was calculated by comparing the ATP levels of cells exposed to test compound with those of cells exposed to DMSO. A semi-log plot of relative ATP levels versus compound concentration was used to calculate the compound concentration required to inhibit growth by 50% (IC50). Data was analyzed by Prism software (GraphPad; San Diego, Calif.) by fitting it to a sigmoidal dose response curve.
(§2) A similar procedure was followed with six other cell lines and the results are shown in Table 1: HT-29, HCT-116, A549, OVCAR-3, MIAPaCa-2, and B16F1.

HCT-116 = experiment: 72 hour cytotoxicity, ATP-Lite cell viability; format: cell-based; conditions: Homo sapiens, HCT-116, Colorectal Carcinoma, read-out: 72 Hour Cytotoxicity (IC50, nM ± SD)
Protocol: as §1, §2

HT-29 = experiment: 72 hour cytotoxicity, ATP-Lite cell viability; format: cell-based; conditions: Homo sapiens, HT-29, Colorectal, read-out: 72 Hour Cytotoxicity (IC50, nM ± SD)
Protocol: as §1, §2

B16F1 = experiment: 72 hour cytotoxicity, ATP-Lite cell viability; format: cell-based; conditions: Mus musculus, B16-F1, B16F1, Melanoma, read-out: 72 Hour Cytotoxicity (IC50, nM ± SD)
Protocol: as §1, §2

A549 = experiment: 72 hour cytotoxicity, ATP-Lite cell viability; format: cell-based; conditions: Homo sapiens, A549, Lung, read-out: 72 Hour Cytotoxicity (IC50, nM ± SD)
Protocol: as §1, §2

MIAPaCa-2 = experiment: 72 hour cytotoxicity, ATP-Lite cell viability; format: cell-based; conditions: Homo sapiens, MIA PaCa-2, MIAPaCa-2, Pancreatic, read-out: 72 Hour Cytotoxicity (IC50, nM ± SD)
Protocol: as §1, §2

MCF-7/MX (BCRP-1) = experiment: Multidrug resistant cell assay, cytotoxicity; format: cell-based; conditions: MCF7/MX, 72 h, read-out: Various MDR Cell Line Cytotoxicity IC50
[2] = male cynomolgus monkey, fasted, single oral dose 20 mg/kg, plasma

SMILES: COc1ccc(N(C)c2nc(CN)nc3ccccc23)cc1 [Compound 1]
- IC50 (MCF-7/VP (MRP-1)): 0.013 µM
- Compound 1 Plasma Concentration ([1]; Post Dose Sample Time 0): 3.08* ng/mL
- Compound 1 Plasma Concentration ([1]; Post Dose Sample Time 0.25): 27.40 ng/mL
- Compound 1 Plasma Concentration ([1]; Post Dose Sample Time 0.5): 64.15 ng/mL
- Compound 1 Plasma Concentration ([1]; Post Dose Sample Time 1): 112.05 ng/mL
- Compound 1 Plasma Concentration ([1]; Post Dose Sample Time 2): 166.01 ng/mL
- Compound 1 Plasma Concentration ([1]; Post Dose Sample Time 6): 18.72 ng/mL
- Compound 1 Plasma Concentration ([1]; Post Dose Sample Time 12): 3.91* ng/mL
- oral bioavailability ([1]; male cynomolgus monkey dosed orally at 20 mg/kg): bioavailable
- AUC(0-inf) [1, 2]: 536 ng·h/mL
- CL/F [1, 2]: 622 mL/min/kg
- Cmax [1, 2]: 166 ng/mL
- Tlast [1, 2]: 12.0 h
- Tmax [1, 2]: 2 h
- half-life [1, 2]: 1.9 h
- Vd/F ([1]; male cynomolgus monkey, fasted, single oral dose 20 mg/kg, plasma, read-out: Vz/F_obs): 102 L/kg
- IC50 (P388): 0.018 µM
- IC50 (NCI/ADR-Res (MDR-1)): 0.013 µM
- microtubule formation (A549 cells): inhibits microtubule formation
- IC50 (P388/ADR (MDR-1)): 0.027 µM
- IC50 (OVCAR-3): 29 ± 20.1 nM
- IC50 (HCT-116): 7.6 ± 1.9 nM
- IC50 (HT-29): 29 ± 2 nM
- IC50 (B16F1): 37 nM
- IC50 (A549): 54 nM
- IC50 (MIAPaCa-2): 56 nM
- IC50 (MCF-7/MX (BCRP-1)): 0.009 µM
